Counter-ions that a name gives are not always drawn. Like-named read-outs stand apart in the source and are kept apart here.
Columns and labels:
[1] = tested on: Aβ1-40; test: Measurement of Aβ1-40 in culture medium of 7W WT APP751 CHO cells by ELISA; assay type: cell-based, Chinese hamster; conditions: for Aβ1-40 (% of control): CHO cells that overexpress APP751, zero = below the detection limit of the assay; for activity at 5 µM: Cricetulus griseus, 5 μM test compound, CHO cells stably transfected with human APP751, culture medium, ELISA, control DMSO;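 on all read-outs here: 5 µM test compound but RI-coded compounds at 10 µM for 24 hours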
[2] = tested on: Aβ1-42; test: Measurement of Aβ1-42 in culture medium of 7W WT APP751 CHO cells by ELISA; assay type: cell-based, Chinese hamster; conditions: for Aβ1-42 (% of control): CHO cells that overexpress APP751, zero = below the detection limit of the assay; for activity at 5 µM: Cricetulus griseus, 5 μM test compound, CHO cells stably transfected with human APP751, culture medium, ELISA, control DMSO;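 on Aβ1-42 (% of control): 5 µM test compound but RI-coded compounds at 10 µM for 24 hours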
[3] = Table 1, 0 = no detectable amount
[4] = Table 1, 0 = no detectable amount, read-out: Aβ1-42 (% of control)
[5] = Table 3, read-out: Aβ-42 (% of control)

Row | Structure (SMILES) | Aβ1-40 (% of control) [1] | Aβ1-42 (% of control) [2] | activity at 5 µM [1, 3] | activity at 5 µM [2, 4] | other results
1 | CC1=C(C(=O)Nc2ccccc2)C(c2ccsc2)C(C#N)=C(SCC(=O)Nc2cccc(C)c2)N1 (stereo not shown) [RI_39] | 72 % of control | 72 % of control |  |  | 
2 | CCCOC(=O)C1=C(C)NC2=C(C(=O)CCC2)C1c1cccc(O)c1 (stereo not shown) [ST014959, propyl 4-(3-hydroxyphenyl)-2-methyl-5-oxo-1,4,6,7,8-pentahydroquinoline-3-carboxylate] |  |  | 64% | 70.2% | 
3 | CC1=C(C(=O)OC2CCCCC2)C(c2cccc3ccccc23)C2=C(CCCC2=O)N1 (stereo not shown) [ST013258, cyclohexyl 2-methyl-4-naphthyl-5-oxo-1,4,6,7,8-pentahydroquinoline-3-carboxylate] |  |  | 0% | 47% | 
4 | CC1=C(C(=O)Nc2ccccc2)C(c2cccs2)C(C#N)=C(SCC(=O)Nc2cc(C)ccc2C)N1 (stereo not shown) [RI_93] | 42.6 % of control | 58 % of control |  |  | 
5 | COC(=O)C1=C(C)NC2=C(C(=O)CC(c3ccc(Cl)cc3)C2)C1c1ccc(Cl)c(Cl)c1 (stereo not shown) [ST015215, methyl 4-(3,4-dichlorophenyl)-7-(4-chlorophenyl)-2-methyl-5-oxo-1,4,6,7,8-pentahydroquinoline-3-carboxylate] |  |  | 23.1% | 39.8% | 
6 | COC(=O)C1=C(C)NC2=C(C(=O)CC(c3ccc(Cl)cc3)C2)C1c1ccccc1F (stereo not shown) [ST015216, methyl 7-(4-chlorophenyl)-4-(2-fluorophenyl)-2-methyl-5-oxo-1,4,6,7,8-pentahydroquinoline-3-carboxylate] |  |  | 68.4% | 93.2% | 
7 | COc1ccc(COC(=O)C2=C(C)NC3=C(C(=O)CC(C)(C)C3)C2c2ccc(Cl)c([N+](=O)[O-])c2)cc1 (stereo not shown) [ST052357, (4-methoxyphenyl)methyl 4-(4-chloro-3-nitrophenyl)-2,7,7-trimethyl-5-oxo-1,4,6,7,8-pentahydroquinoline-3-carboxylate] |  |  | 13.3% | 23.4% | 
8 | CCSCCOC(=O)C1=C(C)NC2=C(C(=O)CCC2)C1c1ccccc1Br (stereo not shown) [ST017199, 2-ethylthioethyl 4-(2-bromophenyl)-2-methyl-5-oxo-1,4,6,7,8-pentahydroquinoline-3-carboxylate] |  |  | 47.9% | 100% | 
9 | Cn1cccc1/C=c1/sc2n(c1=O)C(N)=C(C#N)C(c1cccn1C)C=2C#N (stereo not shown) [ST003361, 5-amino-7-(1-methylpyrrol-2-yl)-2-[(1-methylpyrrol-2-yl)methylene]-3-oxo-4,7-dihydro-1,3-thiazolidino[3,2-a]pyridine-6,8-dicarbonitrile] | 43.9 % of control | 90.24 % of control |  |  | 
10 | CCCOC(=O)C1=C(C)NC2=C(C(=O)CC(c3ccccc3)C2)C1c1ccc(CC)cc1 (stereo not shown) [ST017264, propyl 4-(4-ethylphenyl)-2-methyl-5-oxo-7-phenyl-1,4,6,7,8-pentahydroquinoline-3-carboxylate] |  |  | 29.7% | 48.2% | 
11 | CCCCCOC(=O)C1=C(C)NC2=C(C(=O)CC(C)(C)C2)C1c1ccc([N+](=O)[O-])cc1 (stereo not shown) [ST216093, pentyl 2,7,7-trimethyl-4-(4-nitrophenyl)-5-oxo-1,4,6,7,8-pentahydroquinoline-3-carboxylate] |  |  | 0% | 0% | 
12 | CSc1ccc(C2C(C(=O)OCCOc3ccccc3)=C(C)NC3=C2C(=O)CCC3)cc1 (stereo not shown) [ST015072, 2-phenoxyethyl 2-methyl-4-(4-methylthiophenyl)-5-oxo-1,4,6,7,8-pentahydroquinoline-3-carboxylate] |  |  | 19.3% | 59.4% | 
13 | COC(=O)C1=C(C)NC(SCC(=O)c2cccs2)=C(C#N)C1c1ccc2c(c1)OCCO2 (stereo not shown) [ST014052, methyl 4-(2H,3H-benzo[3,4-e]1,4-dioxan-6-yl)-5-cyano-2-methyl-6-(2-oxo-2-(2-thienyl)ethylthio)-1,4-dihydropyridine-3-carboxylate] | 49 % of control | 74.69 % of control |  |  | 
14 | CCOC(=O)C1=C(C)NC2=C(C(=O)CC(c3ccccc3)C2)C1c1ccccn1 (stereo not shown) [ST017251, ethyl 2-methyl-5-oxo-7-phenyl-4-(2-pyridyl)-1,4,6,7,8-pentahydroquinoline-3-carboxylate] |  |  | 90.4% | 34.3% | 
15 | N#Cc1c(S)[nH]c(C(F)(F)F)cc1=O [ST014350, 4-oxo-2-sulfanyl-6-(trifluoromethyl)hydropyridine-3-carbonitrile, 4-methylmorpholine salt] |  |  |  |  | activity at 5 µM ([1]; Table 3): 81.8%; activity at 5 µM [2, 5]: 46.1%
16 | N#CC1=C(N)n2c(s/c(=C/c3cccc(Br)c3)c2=O)=C(C#N)C1c1cccc(Br)c1 (stereo not shown) [ST024841, 5-amino-7-(3-bromophenyl)-2-[(3-bromophenyl)methylene]-3-oxo-4,7-dihydro-1,3-thiazolidino[3,2-a]pyridine-6,8-dicarbonitrile] | 61.78 % of control | 95.58 % of control |  |  | 

Row | Structure (SMILES) | Aβ1-40 (% of control) [1] | Aβ1-42 (% of control) [2] | activity at 5 µM [1, 3] | activity at 5 µM [2, 4] | other results
17 | COC(=O)C1=C(C)NC2=C(C(=O)CC(c3ccc(OC)cc3)C2)C1c1cccc([N+](=O)[O-])c1 (stereo not shown) [ST013333, methyl 7-(4-methoxyphenyl)-2-methyl-4-(3-nitrophenyl)-5-oxo-1,4,6,7,8-pentahydroquinoline-3-carboxylate] |  |  | 48.4% | 51.6% | 
18 | CCOC(=O)C1=C(C)NC2=C(C(=O)CCC2)C1c1cccc(O)c1 (stereo not shown) [ST013148, ethyl 4-(3-hydroxyphenyl)-2-methyl-5-oxo-1,4,6,7,8-pentahydroquinoline-3-carboxylate] |  |  | 66.1% | 49.9% | 
19 | CCCOC(=O)C1=C(C)NC2=C(C(=O)CC(C)(C)C2)C1c1ccccc1 (stereo not shown) [ST017262, propyl 2,7,7-trimethyl-5-oxo-4-phenyl-1,4,6,7,8-pentahydroquinoline-3-carboxylate] |  |  | 60.1% | 86% | 
20 | CCOC(=O)C1=C(C)NC2=C(C(=O)CCC2)C1c1ccc(C(=O)OC)cc1 (stereo not shown) [ST013173, methyl 4-[3-(ethoxycarbonyl)-2-methyl-5-oxo-4-1,4,6,7,8-pentahydroquinolyl]benzoate] |  |  | 39.2% | 78.1% | 
21 | COc1ccccc1C1C(C(=O)OC2CCCCC2)=C(C)NC2=C1C(=O)CCC2 (stereo not shown) [ST013339, cyclohexyl 4-(2-methoxyphenyl)-2-methyl-5-oxo-1,4,6,7,8-pentahydroquinoline-3-carboxylate] |  |  | 43.6% | 6.87% | 
22 | CC1=C(C(=O)OCCc2ccccc2)C(c2ccccc2F)C2=C(CC(C)(C)CC2=O)N1 (stereo not shown) [ST052225, 2-phenylethyl 4-(2-fluorophenyl)-2,7,7-trimethyl-5-oxo-1,4,6,7,8-pentahydroquinoline-3-carboxylate] |  |  | 37.7% | 29.7% | 
23 | N#CC(C#N)=CC=C1C=CN(C2CCCCC2)C=C1 [ST019328] |  |  |  |  | activity at 5 µM ([1]; Table 3): 59%; activity at 5 µM [2, 5]: 92.2%
24 | CCCCCOC(=O)C1=C(C)NC2=C(C(=O)CCC2)C1c1ccc(OC)c(OC)c1OC (stereo not shown) [ST013346, pentyl 2-methyl-5-oxo-4-(2,3,4-trimethoxyphenyl)-1,4,6,7,8-pentahydroquinoline-3-carboxylate] |  |  | 16.3% | 77.7% | 
25 | CSC1=C(C#N)C(c2ccccc2)C(C(=O)Nc2ccc(Cl)cc2)=C(C)N1 (stereo not shown) [RI_5] | 81.4 % of control | 82.2 % of control |  |  | 
26 | CC1=C(C(=O)Nc2ccccc2)C(c2cccs2)C(C#N)=C(SCC(=O)Nc2ccc(Cl)cc2)N1 (stereo not shown) [RI_74] | 31.4 % of control | 41.6 % of control |  |  | 
27 | COC(=O)C1=C(N)n2c(s/c(=C/c3ccc(Cl)cc3Cl)c2=O)=C(C(=O)OC)C1c1ccc(Cl)cc1Cl (stereo not shown) [ST011769, methyl 5-amino-7-(2,4-dichlorophenyl)-2-[(2,4-dichlorophenyl)methylene]-6-(methoxycarbonyl)-3-oxo-4,7-dihydro-1,3-thiazolidino[3,2-a]pyridine-8-carboxylate] | 42.3 % of control | 71.56 % of control |  |  | 
28 | CCOC(=O)C1=C(C)NC(C)=C(C(=O)OC)C1c1cc(Cl)cc(Cl)c1OC (stereo not shown) [ST211424, methyl 4-(3,5-dichloro-2-methoxyphenyl)-5-(ethoxycarbonyl)-2,6-dimethyl-1,4-dihydropyridine-3-carboxylate] | 62.46 % of control | 91.29 % of control |  |  | 
29 | CCCCCOC(=O)C1=C(C)NC2=C(C(=O)CC(C)(C)C2)C1c1ccc(OCCC)cc1 (stereo not shown) [ST217244, pentyl 2,7,7-trimethyl-5-oxo-4-(4-propoxyphenyl)-1,4,6,7,8-pentahydroquinoline-3-carboxylate] |  |  | 24.9% | 41.5% | 
30 | CC1=C(C(=O)Nc2ccccc2)C(c2cccs2)C(C#N)=C(SCC(=O)Nc2ccccc2F)N1 (stereo not shown) [RI_12] | 68.4 % of control | 82.5 % of control |  |  | 
31 | CCOCCOC(=O)C1=C(C)NC2=C(C(=O)CCC2)C1c1cc(OC)c(OC)c(OC)c1 (stereo not shown) [ST013345, 2-ethoxyethyl 2-methyl-5-oxo-4-(3,4,5-trimethoxyphenyl)-1,4,6,7,8-pentahydroquinoline-3-carboxylate] |  |  | 58.4% | 75.4% | 
32 | CCOc1ccc(/C=c2\sc3n(c2=O)C(N)=C(C#N)C(c2ccc(OCC)c(OC)c2)C=3C#N)cc1OC (stereo not shown) [ST025022, 5-amino-7-(4-ethoxy-3-methoxyphenyl)-2-[(4-ethoxy-3-methoxyphenyl)methylene]-3-oxo-4,7-dihydro-1,3-thiazolidino[3,2-a]pyridine-6,8-dicarbonitrile] | 61.31 % of control | 76.11 % of control |  |  | 
